The numbers were not newly measured in US9694043B2, “Composition for preventing or treating hearing loss” (UNIVERSITY-INDUSTRY COOPERATION GROUP OF KYUNG HEE …, priority 2011, dated 2017), which cites them from elsewhere.

Data set [1] deals with soldiers. As to conditions: 600 U.S. navy soldiers, NAC for 2 weeks during weapons training.
Data set [2] concerns animal model. To be noted: high level of NAC.

Each structure is given as a SMILES string.

For the molecule `CC(=O)N[C@@H](CS)C(=O)O` [NAC, N-acetyl cysteine], the Permanent hearing loss entry in data set [1] is reported as “decrease in permanent hearing loss”. In data set [2], the “Effect on noise-induced hearing loss in animal model” value was “preventive effects on noise-induced hearing loss but limited effects on permanent hearing loss”.
